In PMC6104039 (Nature Communications, 2018):
Where “and” joins values, the source holds several entries; their conditions need not be identical. Equal entries are not always repeated.

Tested on: HEK293 cells
Test: Endogenous ceramide, HexCer and SM levels in cells treated 24 h, targeted LC-MS/MS
Assay type: cell-based
Details: HEK293 cells, 24 h
Experimental: Lipids were then extracted using MTBE/methanol/water as described above.
HEK293 cell culture experiment: Levels of each lipid in P053-treated HEK293 cells were normalised to the mean of the vehicle control group, and each concentration was compared to the control using ANOVA with Dunnett’s post-test. P values were adjusted for multiple comparisons in GraphPad PRISM.
Supplementary Figure 1. Ceramide, SM, and HexCer levels in HEK293 cells treated with
P053. Absolute lipid levels were determined by targeted LC-MS/MS, relative to external
standard curves. Results are mean ± SEM (n = 4) from one of two identical experiments.
Statistically significant results, based on two independent experiments, are as indicated in
Figure 2b-d. Raw data for these figures is provided in Supplementary Data File 1.

C[C@@](N)(CO)CCc1ccc(OCc2ccc(Cl)c(Cl)c2)cc1 [P053, (S)-2-amino-4-(4-(3,4-dichlorobenzyloxy)phenyl)-2-methylbutan-1-ol]
16:0 Cer level (P053 100 nM): 93.0789 percentage of the vehicle control group and 87.8624 percentage of the vehicle control group and 90.7567 percentage of the vehicle control group and 99.4946 percentage of the vehicle control group and 119.082 percentage of the vehicle control group and 99.8119 percentage of the vehicle control group and 116.788 percentage of the vehicle control group and 98.8463 percentage of the vehicle control group
16:0 HexCer level (P053 100 nM): 72.1291 percentage of the vehicle control group and 81.3101 percentage of the vehicle control group and 75.1757 percentage of the vehicle control group and 88.1626 percentage of the vehicle control group and 92.7296 percentage of the vehicle control group and 94.3662 percentage of the vehicle control group and 88.291 percentage of the vehicle control group and 103.879 percentage of the vehicle control group
16:0 SM level (P053 100 nM): 96.6683 percentage of the vehicle control group and 97.496 percentage of the vehicle control group and 96.0726 percentage of the vehicle control group and 98.7215 percentage of the vehicle control group and 93.8292 percentage of the vehicle control group and 95.9275 percentage of the vehicle control group and 94.8581 percentage of the vehicle control group and 102.543 percentage of the vehicle control group
16:1 SM level (P053 100 nM): 104.314 percentage of the vehicle control group and 87.7756 percentage of the vehicle control group and 92.2071 percentage of the vehicle control group and 111.506 percentage of the vehicle control group and 103.607 percentage of the vehicle control group and 109.147 percentage of the vehicle control group and 99.9145 percentage of the vehicle control group and 113.03 percentage of the vehicle control group
18:0 Cer level (P053 100 nM): 51.8361 percentage of the vehicle control group and 34.0436 percentage of the vehicle control group and 43.3209 percentage of the vehicle control group and 47.0876 percentage of the vehicle control group and 49.1716 percentage of the vehicle control group and 60.878 percentage of the vehicle control group and 53.1013 percentage of the vehicle control group and 34.6023 percentage of the vehicle control group
18:0 HexCer level (P053 100 nM): 26.076 percentage of the vehicle control group and 45.6733 percentage of the vehicle control group and 33.7976 percentage of the vehicle control group and 35.7543 percentage of the vehicle control group and 29.3831 percentage of the vehicle control group and 38.4787 percentage of the vehicle control group and 45.094 percentage of the vehicle control group and 48.7 percentage of the vehicle control group
18:0 SM level (P053 100 nM): 58.3863 percentage of the vehicle control group and 60.4391 percentage of the vehicle control group and 60.0968 percentage of the vehicle control group and 58.0444 percentage of the vehicle control group and 61.8417 percentage of the vehicle control group and 67.9073 percentage of the vehicle control group and 68.1366 percentage of the vehicle control group and 74.9383 percentage of the vehicle control group
18:1 SM level (P053 100 nM): 67.1121 percentage of the vehicle control group and 61.0781 percentage of the vehicle control group and 66.2487 percentage of the vehicle control group and 67.0185 percentage of the vehicle control group and 69.283 percentage of the vehicle control group and 68.5826 percentage of the vehicle control group and 71.1925 percentage of the vehicle control group
20:0 Cer level (P053 100 nM): 85.7665 percentage of the vehicle control group and 109.856 percentage of the vehicle control group and 101.721 percentage of the vehicle control group and 86.1177 percentage of the vehicle control group and 103.673 percentage of the vehicle control group and 96.5034 percentage of the vehicle control group and 78.6868 percentage of the vehicle control group
22:0 Cer level (P053 100 nM): 109.852 percentage of the vehicle control group and 94.2148 percentage of the vehicle control group and 84.7703 percentage of the vehicle control group and 98.1236 percentage of the vehicle control group and 119.57 percentage of the vehicle control group and 118.497 percentage of the vehicle control group and 136.979 percentage of the vehicle control group and 110.794 percentage of the vehicle control group
22:0 HexCer level (P053 100 nM): 96.8671 percentage of the vehicle control group and 87.3308 percentage of the vehicle control group and 81.4727 percentage of the vehicle control group and 94.5887 percentage of the vehicle control group and 107.975 percentage of the vehicle control group and 124.49 percentage of the vehicle control group and 104.798 percentage of the vehicle control group and 129.338 percentage of the vehicle control group
22:0 SM level (P053 100 nM): 88.1464 percentage of the vehicle control group and 112.339 percentage of the vehicle control group and 83.7907 percentage of the vehicle control group and 79.4494 percentage of the vehicle control group and 115.966 percentage of the vehicle control group and 112.687 percentage of the vehicle control group and 121.861 percentage of the vehicle control group and 131.998 percentage of the vehicle control group
22:1 SM level (P053 100 nM): 110.7 percentage of the vehicle control group and 102.614 percentage of the vehicle control group and 109.89 percentage of the vehicle control group and 108.27 percentage of the vehicle control group and 108.462 percentage of the vehicle control group and 113.237 percentage of the vehicle control group and 107.396 percentage of the vehicle control group and 108.45 percentage of the vehicle control group
24:0 HexCer level (P053 100 nM): 91.3427 percentage of the vehicle control group and 87.2698 percentage of the vehicle control group and 81.8027 percentage of the vehicle control group and 92.8624 percentage of the vehicle control group and 100.187 percentage of the vehicle control group and 107.186 percentage of the vehicle control group and 106.263 percentage of the vehicle control group and 116.702 percentage of the vehicle control group
24:0 SM level (P053 100 nM): 117 percentage of the vehicle control group and 90.9141 percentage of the vehicle control group and 93.8706 percentage of the vehicle control group and 115.93 percentage of the vehicle control group and 114.197 percentage of the vehicle control group and 134.57 percentage of the vehicle control group and 140.981 percentage of the vehicle control group
24:1 Cer level (P053 100 nM): 110.817 percentage of the vehicle control group and 85.3956 percentage of the vehicle control group and 97.052 percentage of the vehicle control group and 96.6841 percentage of the vehicle control group and 128.871 percentage of the vehicle control group and 121.829 percentage of the vehicle control group and 142.778 percentage of the vehicle control group and 120.748 percentage of the vehicle control group
24:1 HexCer level (P053 100 nM): 91.7407 percentage of the vehicle control group and 95.5309 percentage of the vehicle control group and 96.8003 percentage of the vehicle control group and 101.48 percentage of the vehicle control group and 104.186 percentage of the vehicle control group and 105.129 percentage of the vehicle control group and 100.754 percentage of the vehicle control group and 113.013 percentage of the vehicle control group
24:1 SM level (P053 100 nM): 111.218 percentage of the vehicle control group and 94.5875 percentage of the vehicle control group and 99.337 percentage of the vehicle control group and 100.942 percentage of the vehicle control group and 110.843 percentage of the vehicle control group and 105.998 percentage of the vehicle control group and 112.241 percentage of the vehicle control group and 112.423 percentage of the vehicle control group
14:0 SM level (P053 300 nM): 100.258 percentage of the vehicle control group and 95.2604 percentage of the vehicle control group and 95.8152 percentage of the vehicle control group and 99.1466 percentage of the vehicle control group and 109.96 percentage of the vehicle control group and 116.62 percentage of the vehicle control group and 129.695 percentage of the vehicle control group
16:0 Cer level (P053 300 nM): 91.1433 percentage of the vehicle control group and 77.1433 percentage of the vehicle control group and 90.5634 percentage of the vehicle control group and 83.6347 percentage of the vehicle control group and 92.4764 percentage of the vehicle control group and 98.9865 percentage of the vehicle control group and 90.2518 percentage of the vehicle control group
16:0 HexCer level (P053 300 nM): 76.4857 percentage of the vehicle control group and 73.433 percentage of the vehicle control group and 81.5302 percentage of the vehicle control group and 81.9705 percentage of the vehicle control group and 86.9585 percentage of the vehicle control group and 88.1949 percentage of the vehicle control group and 93.4284 percentage of the vehicle control group
